In patent publication US20120053235A1, “Dihydromyricetin as an IKK-beta inhibitor used for treatment of arthritis, cancer and autoimmune conditions, and other diseases or disorders” (HONG KONG BAPTIST UNIVERSITY, priority 2010, published 2012):

Test system: IKK-α/β phosphorylation in human T lymphocytes
Experiment: Measurement of the phosphorylation of IKK α/β (Western blot)
Type: cell-based
Conditions: mediated by PMA/ionomycin or anti-OKT-3/anti-CD28; FIG. 4B
Procedure: Human T lymphocytes (4×10^6/well) were pretreated with DMY in different concentrations for 60 minutes and then the cells were stimulated with PMA/ionomycin for 30 minutes.
The whole-cell lysates were prepared by lysing the harvested T cells with lysis buffer (50 mM Tris-HCl, pH 7.5, 250 mM NaCl, 5 mM EDTA, 1 mM DTT, 1% Triton, 50 mM NaF, 1 mM sodium orthovanadate, 0.5 mM PMSF and 1× protease inhibitor mix, Roche). Protein concentrations were determined by using Bio-Rad Protein assay (Bio-Rad Laboratories, Inc. Hercules, Calif.). Equal amount of nuclear proteins or whole-cell lysates were analyzed by 10% SDS-polyacrylamide gel electrophoresis (SDS-PAGE). After electrophoresis, the proteins were electro-transferred to the nitrocellulose membranes. After proteins were transferred, the membranes were blocked by 5% dried milk for 60 minutes and then washed three times for 5 minutes in washing interval with TBS-T (Tween-20, 0.05%). The membranes were then incubated with phosphorylation-IKK-α/β primary antibodies overnight at 4° C. and then washed three times with TBS-T. Afterwards, the membranes were incubated again with HRP-conjugated secondary antibodies for 60 minutes. The blots were developed using the enhanced chemiluminescence (ECL, Amersham Bioscience).

O=C1c2c(O)cc(O)cc2O[C@H](c2cc(O)c(O)c(O)c2)[C@H]1O [DMY, dihydromyricetin]
IKK-α/β phosphorylation: inhibit IKK-ca/3 phosphorylation
